Test results taken from PMC3950723, “A fluorescence-based assay suitable for quantitative analysis of deadenylase enzyme activity” (Nucleic Acids Research, 2013).
{Flc} = fluorescein group

Tests used:
Format in all cases: biochemical
[1] = target: T1, Caf1/CNOT7 (Homo sapiens, UniProt Q9UIV1); assay: fluorescence-based deadenylase assay; settings: for inhibition of Caf1/CNOT7 activity: 300 µM compound; for IC50: 15 min pre-incubation at room temperature, 60 min at 30°C, ± standard error of the mean, at least three independent experiments
T1 construct: hexahistidine (N); made in house; host or cells: Escherichia coli BL21 (DE3), plasmid pQE80L
Method: (§1) Standard reaction conditions for deadenylase assays were: 20 mM Tris–HCl pH 7.9, 50 mM NaCl, 2 mM MgCl2, 10% glycerol, 1 mM β-mercaptoethanol and 1.0 µM 5′-Flc-labelled RNA substrate in nuclease-free water.
(§2) For fluorescence-based detection of nuclease activity, deadenylase reactions (10–20 µl) were incubated at 30°C for 60 min and stopped by the addition of an equal volume of probe mix containing 1% SDS, and a 5-fold molar excess of 3′-labelled DNA probe. Fluorescence intensity was measured at 25°C (sensitivity setting 70–90) using a BioTek Synergy HT plate reader with 96 or 384 U-shaped black multi-well plates. Filter sets used were: 485 ± 20 nm (excitation) and 528 ± 20 nm (emission). Data analysis and curve-fitting were carried out using Microsoft Excel 2007 and Graphpad Prism 5.0.
Compounds (10 mM in dimethyl sulphoxide, DMSO) were stored in a dry, inert environment at −20°C and dispensed in 96-well plates using an automated facility (TTP Labtech Technology). Compounds were diluted to 0.5 mM using 20% DMSO/water. Aliquots (4 µl; 25% DMSO/water) were transferred to black U-well 384-well plates (Greiner Bio-One) and subsequent automated screening was carried out using a Biomek 3000 liquid handler (Beckman Coulter). After addition of enzyme (8 µl containing 1.0 µM Caf1/CNOT7, 50 mM Tris–HCl pH 7.9, 125 mM NaCl, 5 mM MgCl2, 25% glycerol, 2.5 mM β-mercaptoethanol), plates were left at room temperature for 15 min before the addition of RNA substrate (8 µl). The composition of the final reaction mixture was: 0.4 µM Caf1/CNOT7, 20 mM Tris–HCl pH 7.9, 50 mM NaCl, 2 mM MgCl2, 10% glycerol, 1 mM β-mercaptoethanol, 5% DMSO, 100 µM library compound. After incubation at 30°C for 60 min, 20 µl probe mix (5 µM DNA probe, 1% SDS, 20 mM Tris–HCl pH 8.0, 0.5 mM EDTA) was added. Fluorescence was measured using a BioTek Synergy HT plate reader as described above.

[2] = target: T2, Ccr4/CNOT6L (Homo sapiens, UniProt Q96LI5); assay: fluorescence-based deadenylase assay, selectivity; settings: 300 µM compound
T2 construct: lacking the amino terminal leucine-rich repeat domain (amino acids 1–155); made in house; host or cells: E. coli, plasmid pQE80L
Method: as §1, §2

[3] = target: T3, PARN (Homo sapiens, UniProt O95453); assay: fluorescence-based deadenylase assay, selectivity; settings: 300 µM compound
T3 construct: made in house
T3 sequence (O95453 1-639): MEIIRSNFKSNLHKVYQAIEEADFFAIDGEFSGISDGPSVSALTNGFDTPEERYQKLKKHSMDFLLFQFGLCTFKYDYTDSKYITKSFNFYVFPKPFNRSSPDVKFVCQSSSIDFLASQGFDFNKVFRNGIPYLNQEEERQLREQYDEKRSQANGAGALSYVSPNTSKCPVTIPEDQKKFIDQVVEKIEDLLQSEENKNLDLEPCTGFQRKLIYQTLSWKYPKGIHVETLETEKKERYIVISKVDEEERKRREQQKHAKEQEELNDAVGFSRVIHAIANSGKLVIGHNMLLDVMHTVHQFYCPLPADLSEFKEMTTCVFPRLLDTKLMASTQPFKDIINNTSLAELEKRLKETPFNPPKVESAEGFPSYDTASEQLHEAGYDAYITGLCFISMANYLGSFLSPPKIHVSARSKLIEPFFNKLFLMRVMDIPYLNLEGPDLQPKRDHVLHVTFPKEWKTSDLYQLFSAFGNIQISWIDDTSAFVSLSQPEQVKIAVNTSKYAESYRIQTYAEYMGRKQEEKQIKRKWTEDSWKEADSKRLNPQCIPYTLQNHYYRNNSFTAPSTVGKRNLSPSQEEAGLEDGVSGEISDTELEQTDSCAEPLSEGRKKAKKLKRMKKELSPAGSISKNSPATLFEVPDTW
Method: as §1, §2

[4] = test system: HeLa S-100 cytoplasmic extract; assay: fluorescence-based detection of 3′ exonuclease activity in complex mixtures; settings: 300 µM compound, 0.05 mg/ml S-100 fraction
Method: as §1, §2
HeLa cytoplasmic extract (S-100 fraction) was purchased from Boston Biochem (cat no F-372, 5 mg/ml).

T1 sequence (Q9UIV1 whole entry): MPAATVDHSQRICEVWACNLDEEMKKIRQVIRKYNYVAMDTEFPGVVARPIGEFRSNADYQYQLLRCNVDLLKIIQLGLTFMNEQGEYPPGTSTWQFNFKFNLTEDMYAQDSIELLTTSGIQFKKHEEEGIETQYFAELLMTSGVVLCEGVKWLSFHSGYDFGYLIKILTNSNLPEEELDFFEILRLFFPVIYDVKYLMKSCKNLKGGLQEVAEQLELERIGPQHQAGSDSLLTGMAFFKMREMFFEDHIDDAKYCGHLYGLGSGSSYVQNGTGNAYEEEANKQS
T2 sequence (Q96LI5 156-555): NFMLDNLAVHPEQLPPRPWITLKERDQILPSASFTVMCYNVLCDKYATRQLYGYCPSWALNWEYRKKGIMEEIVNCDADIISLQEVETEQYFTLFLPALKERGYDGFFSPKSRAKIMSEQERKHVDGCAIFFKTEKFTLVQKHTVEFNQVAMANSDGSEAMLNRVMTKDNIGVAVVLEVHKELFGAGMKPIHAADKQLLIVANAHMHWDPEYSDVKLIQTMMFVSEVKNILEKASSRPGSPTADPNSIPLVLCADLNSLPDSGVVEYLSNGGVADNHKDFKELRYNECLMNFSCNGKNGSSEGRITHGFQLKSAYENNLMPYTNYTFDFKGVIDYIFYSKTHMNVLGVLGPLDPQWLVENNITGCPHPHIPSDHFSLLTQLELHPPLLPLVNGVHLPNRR

Row | Compound | inhibition of Caf1/CNOT7 activity [1] | IC50 [1] [µM] | inhibition of Ccr4/CNOT6L activity [2] | inhibition of PARN activity [3] | Km ([1]; 0.4 µM Caf1/CNOT7, non-linear regression of Michaelis–Menten equation) [µM] | inhibition of activity of the S-100 fraction [4]
1 | 5′-CCU UUC CAA AAA AAA A-3′ (CCUUUCCAAAAAAAAA; RNA, 5' {Flc}, backbone not given here; Deadenylase RNA substrate) [oligonucleotide substrate, 16-mer RNA substrate oligonucleotide containing a 5′ fluorescein (Flc) group, reference compound] | – | – | – | – | 10.6 ± 2.9 | –
2 | Cc1ccccc1C(=O)Nc1nc2ccc(S(=O)(=O)NCC(C)C)cc2s1 [NCC-00001590] | only inhibited Caf1/CNOT7 | 98.7 ± 10.9 | did not inhibit | did not inhibit | – | –
3 | CC(Cc1ccco1)NC(=O)CSc1nnc(C(=O)Nc2ccc(Cl)cc2)s1 (stereo not drawn) [NCC-00007277] | – | 137 ± 20.3 | – | – | – | strongest effect
4 | Cc1ccc(N(CCC#N)C(=O)CSc2nc3cc(S(N)(=O)=O)ccc3n2C)cc1 [NCC-00019223] | – | 97.5 ± 36.1 | – | – | – | –

The next lines start with results.

Row | inhibition of Caf1/CNOT7 activity [1] | IC50 [1] [µM] | inhibition of Ccr4/CNOT6L activity [2] | inhibition of PARN activity [3] | Compound | Km ([1]; 0.4 µM Caf1/CNOT7, non-linear regression of Michaelis–Menten equation) [µM] | inhibition of activity of the S-100 fraction [4]
5 | – | 233 ± 23.5 | no complete inhibition | no complete inhibition | Cc1ccc(S(=O)(=O)NCc2nnc(NC(=O)c3ccc(NC(=O)C(F)(F)F)cc3)s2)cc1 [NCC-00010651] | – | –
6 | only inhibited Caf1/CNOT7 | 129 ± 18.8 | did not inhibit | did not inhibit | COc1ccccc1NC(=O)c1ccc(NC(=O)CNC(=O)C(=O)NCc2cccs2)cc1 [NCC-00039069] | – | –
